Test results reported in patent US20200069691A1, “HETEROCYCLIC COMPOUNDS AS HIV PROTEASE INHIBITORS” (Merck Sharp & Dohme Corp., priority 2016, published 2020).

Target: T1, wild-type HIV-1 protease (Human immunodeficiency virus type 1 group M subtype B, UniProt P04585)
T1 construct: Escherichia coli expressed wild-type HIV-1 protease protein
Assay: Assay for Inhibition of Microbial Expressed HIV Protease (peptide substrate cleavage, LC-MS/MS readout)
Assay type: biochemical
Conditions: E. coli expressed wild-type HIV-1 protease, mean of at least two independent experiments, read-out: HIV Pr Enzyme HIV1 PR IC50
Outline: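 Cleavage of Val-Ser-Gln-Asn-(β-naphthyl)Ala-Pro-Ile-Val (400 μM) by recombinant HIV-1 protease ([…]) ran 1 h at 30 °C after a 30 min room-temperature inhibitor preincubation in 50 mM sodium acetate pH 5.5. Product peak areas by LC-MS/MS gave inhibition; values average at least two independent runs.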

| SMILES | IC50 |
| --- | --- |
| CCCC1(c2ccccc2)NC(=N)N(Cc2cccc(C(=O)N3Cc4nccnc4C3)c2)C1=O (centres unmarked) [Compound 278, 3-[3-(5,7-dihydro-6H-pyrrolo[3,4-b]pyrazin-6-ylcarbonyl)benzyl]-2-imino-5-phenyl-5-propylimidazolidin-4-one] | 182 nM |
| CC(C)CC[C@]1(c2ccc(F)cc2)NC(=N)N(C(Cc2ccccc2)c2ccc(C(F)(F)F)c(C(=O)N3Cc4nccnc4C3)c2)C1=O (stereo partly drawn) [Compound 4, (5R)-3-{1-[3-(5,7-dihydro-6H-pyrrolo[3,4-b]pyrazin-6-ylcarbonyl)-4-(trifluoromethyl)-phenyl]-2-phenylethyl}-5-(4-fluorophenyl)-2-imino-5-(3-methylbutyl)-imidazolidin-4-one] | 0.2 nM |
| COC(=O)N1CCN(C(=O)c2cccc(CN3C(=N)NC(c4ccc(F)cc4)(c4cccc(C(N)=O)c4)C3=O)c2)CC1 (centres unmarked) [Compound 347, methyl 4-[(3-{[4-(3-carbamoylphenyl)-4-(4-fluorophenyl)-2-imino-5-oxoimidazolidin-1-yl]methyl}phenyl)-carbonyl]piperazine-1-carboxylate] | 83.3 nM |
| CC(C)C[C@@]1(c2ccccc2)NC(=N)N(Cc2ccc(C(F)(F)F)c(C(=O)N3Cc4nccnc4C3)c2)C1=O [Compound 174, (5S)-3-[3-(5,7-dihydro-6H-pyrrolo[3,4-b]pyrazin-6-ylcarbonyl)-4-(trifluoromethyl)-benzyl]-2-imino-5-(2-methylpropyl)-5-phenylimidazolidin-4-one] | 54.9 nM |
| N=C1NC(c2ccc(F)cc2)(c2ccc(F)cc2)C(=O)N1Cc1cccc(C(=O)N2CCC(n3c(=O)[nH]c4ccccc43)CC2)c1 [Compound 338, 1-{1-[(3-{[4,4-bis(4-fluorophenyl)-2-imino-5-oxoimidazolidin-1-yl]methyl}phenyl)carbonyl]piperidin-4-yl}-1,3-dihydro-2H-benzimidazol-2-one] | 73.5 nM |
| C[C@H](c1cccc(C(=O)N2Cc3ccccc3C2)c1)N1C(=N)NC(c2ccccc2)(c2ccccc2)C1=O [Compound 187, 3-{(1R)-1-[3-(1,3-dihydro-2H-isoindol-2-ylcarbonyl)phenyl]ethyl}-2-imino-5,5-diphenylimidazolidin-4-one] | 3.67 nM |
| CC(C)CCC1(c2cccc(-c3cccnc3)c2)NC(=N)N(Cc2cccc(C(=O)N3Cc4ccccc4C3)c2)C1=O (centres unmarked) [Compound 277, 3-[3-(1,3-dihydro-2H-isoindol-2-ylcarbonyl)benzyl]-2-imino-5-(3-methylbutyl)-5-(3-pyridin-3-ylphenyl)imidazolidin-4-one] | 29.8 nM |
| CNC(=O)c1nc2n(c1Cl)CCN(C(=O)c1cccc(CN3C(=N)NC(c4ccccc4)(c4ccccc4)C3=O)c1)C2 [Compound 251, 3-chloro-7-({3-[(2-imino-5-oxo-4,4-diphenylimidazolidin-1-yl)methyl]phenyl}carbonyl)-N-methyl-5,6,7,8-tetrahydroimidazo[1,2-a]pyrazine-2-carboxamide] | 19.2 nM |
| N=C1N[C@](CCCC(F)(F)F)(c2ccc(F)cc2)C(=O)N1Cc1ccc(C(F)(F)F)c(C(=O)N2CCN(c3ccccc3)CC2)c1 [Compound 119, (5R)-5-(4-fluorophenyl)-2-imino-3-{3-[(4-phenylpiperazin-1-yl)carbonyl]-4-(trifluoromethyl)-benzyl}-5-(4,4,4-trifluorobutyl)-imidazolidin-4-one] | 42.1 nM |
| CNC(=O)N1CCN(C(=O)c2cc(CN3C(=N)N[C@](CCCC(F)(F)F)(c4ccc(F)cc4)C3=O)ccc2C(F)(F)F)CC1 [Compound 115, 4-{[5-{[(4R)-4-(4-fluorophenyl)-2-imino-5-oxo-4-(4,4,4-trifluoro-butyl)imidazolidin-1-yl]methyl}-2-(trifluoromethyl)phenyl]carbonyl}-N-methylpiperazine-1-carboxamide] | 36.5 nM |
| CC(C)CCC1(c2ccccc2)NC(=N)N(Cc2ccc(C(F)(F)F)c(C(=O)N3CCC(C)(C)C3)c2)C1=O (centres unmarked) [Compound 176, 3-{3-[(3,3-dimethylpyrrolidin-1-yl)carbonyl]-4-(trifluoromethyl)benzyl}-2-imino-5-(3-methylbutyl)-5-phenylimidazolidin-4-one] | 63.4 nM |
| Cn1ncc2c1CN(C(=O)c1cccc(CN3C(=N)NC(c4ccccc4)(c4ccccc4)C3=O)c1)C2 [Compound 241, 2-imino-3-{3-[(1-methyl-4,6-dihydropyrrolo [3,4-c]pyrazol-5(1H)-yl)carbonyl]benzyl}-5,5-diphenylimidazolidin-4-one] | 15.6 nM |
| CC(C)CC(c1ccc(C(F)(F)F)c(C(=O)N2CCn3c(nnc3C(F)(F)F)C2)c1)N1C(=N)N[C@](C[C@@H]2CCOC2)(c2ccc(F)cc2)C1=O (stereo partly drawn) [Compound 42, (5R)-5-(4-fluorophenyl)-2-imino-3-{3-methyl-1-[4-(trifluoromethyl)-3-{[3-(trifluoromethyl)-5,6-dihydro-[1,2,4]triazolo[4,3-a]pyrazin-7(8H)-yl]carbonyl}phenyl]butyl}-5-[(3R)-tetrahydrofuran-3-ylmethyl]-imidazolidin-4-one] | 4.26 nM |
| N=C1NC(c2ccc(F)cc2)(c2ccc(F)cc2)C(=O)N1Cc1cccc(C(=O)N2CCN(c3ncccn3)CC2)c1 [Compound 280, 5,5-bis(4-fluorophenyl)-2-imino-3-{3-[(4-pyrimidin-2-ylpiperazin-1-yl)carbonyl]benzyl} imidazolidin-4-one] | 31 nM |
| N=C1N[C@](CCCC(F)(F)F)(c2ccc(F)cc2)C(=O)N1Cc1ccc(C(F)(F)F)c(C(=O)N2Cc3cnc(-c4ccc5ncnn5c4)nc3C2)c1 [Compound 32, (5R)-5-(4-fluorophenyl)-2-imino-3-{3-[(2-[1,2,4]triazolo[1,5-a]pyridin-6-yl-5,7-dihydro-6H-pyrrolo[3,4-d]pyrimidin-6-yl)carbonyl]-4-(trifluoromethyl)benzyl}-5-(4,4,4-trifluorobutyl)imidazolidin-4-one] | 3.21 nM |
| N=C1NC(c2ccccc2)(c2ccccc2)C(=O)N1Cc1ccc(C(F)(F)F)c(C(=O)N2CCN(c3ncccn3)CC2)c1 [Compound 171, 2-imino-5,5-diphenyl-3-{3-[(4-pyrimidin-2-ylpiperazin-1-yl)carbonyl]-4-(trifluoromethyl)-benzyl}imidazolidin-4-one] | 53 nM |
| N=C1NC(c2ccccc2)(c2ccc(-c3ccccc3)cc2)C(=O)N1Cc1cccc(C(=O)N2Cc3ccccc3C2)c1 (centres unmarked) [Compound 273, 5-biphenyl-4-yl-3-[3-(1,3-dihydro-2H-isoindol-2-ylcarbonyl)benzyl]-2-imino-5-phenylimidazolidin-4-one] | 28.5 nM |
| N=C1NC(c2ccccc2)(c2ccccc2)C(=O)N1Cc1cccc(C(=O)N2CCc3ccncc3C2)c1 [Compound 313, 3-[3-(3,4-dihydro-2,7-naphthyridin-2(1H)-ylcarbonyl)benzyl]-2-imino-5,5-diphenylimidazolidin-4-one] | 52.1 nM |
| CC(C)CCC1(c2ccccc2)NC(=N)N(Cc2cccc(C(=O)N3CCC(n4c(=O)[nH]c5ccccc54)CC3)c2)C1=O (centres unmarked) [Compound 314, 1-{1-[(3-{[2-imino-4-(3-methylbutyl)-5-oxo-4-phenylimidazolidin-1-yl]methyl}phenyl)carbonyl]piperidin-4-yl}-1,3-dihydro-2H-benzimidazol-2-one] | 52.1 nM |
| CC(C)CC[C@]1(c2ccc(F)cc2)NC(=N)N(C(CCCc2ccccc2)c2ccc(C(F)(F)F)c(C(=O)N3CCn4c(nnc4C(F)(F)F)C3)c2)C1=O (stereo partly drawn) [Compound 56, (5R)-5-(4-fluorophenyl)-2-imino-5-(3-methylbutyl)-3-{4-phenyl-1-[4-(trifluoromethyl)-3-{[3-(trifluoromethyl)-5,6-dihydro[1,2,4]-triazolo[4,3-a]pyrazin-7(8H)-yl]carbonyl}-phenyl]butyl}imidazolidin-4-one] | 6.19 nM |
| CC(C)CCC1(c2cccc(F)c2)NC(=N)N(Cc2cccc(C(=O)N3Cc4nccnc4C3)c2)C1=O (centres unmarked) [Compound 265, 3-[3-(5,7-dihydro-6H-pyrrolo[3,4-b]pyrazin-6-ylcarbonyl)benzyl]-5-(3-fluorophenyl)-2-imino-5-(3-methylbutyl)imidazolidin-4-one] | 24.8 nM |
| N=C1NC(CCC2CC2)(c2cccc(C(F)(F)F)c2)C(=O)N1Cc1ccc(C(F)(F)F)c(C(=O)N2Cc3nccnc3C2)c1 (centres unmarked) [Compound 75, 5-(2-cyclopropylethyl)-3-[3-(5,7-dihydro-6H-pyrrolo[3,4-b]pyrazin-6-ylcarbonyl)-4-(trifluoromethyl)-benzyl]-2-imino-5-[3-(trifluoro-methyl)phenyl]-imidazolidin-4-one] | 10.2 nM |
| COC(=O)Nc1ncc2c(n1)CN(C(=O)c1cc(CN3C(=N)NC(CCC(C)C)(c4ccccc4)C3=O)ccc1C(F)(F)F)C2 (centres unmarked) [Compound 137, methyl (6-{[5-{[2-imino-4-(3-methylbutyl)-5-oxo-4-phenylimidazolidin-1-yl]methyl}-2-(trifluoromethyl)phenyl]carbonyl}-6,7-dihydro-5H-pyrrolo[3,4-d]pyrimidin-2-yl)carbamate] | 1.88 nM |
| CC(C)CCC1(c2ccc(F)cc2)NC(=N)N(Cc2cccc(C(=O)N3Cc4ccccc4C3)c2)C1=O (centres unmarked) [Compound 229, 3-[3-(1,3-dihydro-2H-isoindol-2-ylcarbonyl)benzyl]-5-(4-fluorophenyl)-2-imino-5-(3-methylbutyl)imidazolidin-4-one] | 13.1 nM |
| C[C@H](c1cccc(C(=O)N2Cc3cncnc3C2)c1)N1C(=N)NC(c2ccc(F)cc2)(c2ccc(F)cc2)C1=O [Compound 198, 3-{(1R)-1-[3-(5,7-dihydro-6H-pyrrolo[3,4-d]pyrimidin-6-ylcarbonyl)phenyl]ethyl}-5,5-bis(4-fluorophenyl)-2-iminoimidazolidin-4-one] | 5.36 nM |
| N=C1N[C@](CCCC(F)(F)F)(c2ccc(F)cc2)C(=O)N1Cc1ccc(C(F)(F)F)c(C(=O)N2Cc3cnc(-c4ccsc4)nc3C2)c1 [Compound 63, (5R)-5-(4-fluorophenyl)-2-imino-3-{3-[(2-thiophen-3-yl-5,7-dihydro-6H-pyrrolo[3,4-d]pyrimidin-6-yl)carbonyl]-4-(trifluoromethyl)-benzyl}-5-(4,4,4-trifluorobutyl)-imidazolidin-4-one] | 6.94 nM |
